Laboratory results reported in ChEMBL document CHEMBL4422610, “HDAC as onco target: Reviewing the synthetic approaches with SAR study of their inhibitors” (Eur J Med Chem, 2018).

Assays:
A549 = experiment: cells; conditions: Homo sapiens
MKN-45 = experiment: cells; conditions: Homo sapiens
MCF7 [1] = experiment: cells; conditions: Homo sapiens
Histone deacetylase 9 = Histone deacetylase 9 (Homo sapiens, UniProt Q9UKV0); experiment: Inhibition of human HDAC9 using fluorogenic HDAC substrate
[2] = molecular target: T1, Polyamine deacetylase HDAC10 (Homo sapiens, UniProt Q969S8); experiment: Inhibition of human HDAC10 using fluorogenic HDAC substrate
T1 sequence (Q969S8 whole entry): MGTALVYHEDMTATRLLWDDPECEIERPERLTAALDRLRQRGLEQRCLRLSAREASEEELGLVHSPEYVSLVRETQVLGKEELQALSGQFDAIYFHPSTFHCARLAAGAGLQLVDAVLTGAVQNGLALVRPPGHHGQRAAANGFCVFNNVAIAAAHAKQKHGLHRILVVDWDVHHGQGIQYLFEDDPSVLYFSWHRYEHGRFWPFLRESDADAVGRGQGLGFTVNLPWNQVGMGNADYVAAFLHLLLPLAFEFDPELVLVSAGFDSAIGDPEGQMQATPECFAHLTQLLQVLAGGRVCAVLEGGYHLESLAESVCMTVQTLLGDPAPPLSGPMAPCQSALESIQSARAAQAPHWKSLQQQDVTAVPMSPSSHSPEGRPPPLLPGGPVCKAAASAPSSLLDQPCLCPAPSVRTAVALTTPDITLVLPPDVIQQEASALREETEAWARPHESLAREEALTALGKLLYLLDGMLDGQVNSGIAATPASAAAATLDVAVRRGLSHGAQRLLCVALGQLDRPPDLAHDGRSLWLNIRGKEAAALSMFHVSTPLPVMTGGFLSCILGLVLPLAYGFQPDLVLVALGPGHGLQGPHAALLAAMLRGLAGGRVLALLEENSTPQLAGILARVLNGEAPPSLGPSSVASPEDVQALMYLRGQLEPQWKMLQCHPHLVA

Histone deacetylase 1 [3] = molecular target: T2, Histone deacetylase 1 (Homo sapiens, UniProt Q13547); experiment: Inhibition of human HDAC1 using fluorogenic HDAC substrate
[4] = molecular target: T3, Protein deacetylase HDAC6 (Homo sapiens, UniProt Q9UBN7); experiment: Inhibition of human HDAC6 using fluorogenic HDAC substrate
T3 sequence (Q9UBN7 whole entry): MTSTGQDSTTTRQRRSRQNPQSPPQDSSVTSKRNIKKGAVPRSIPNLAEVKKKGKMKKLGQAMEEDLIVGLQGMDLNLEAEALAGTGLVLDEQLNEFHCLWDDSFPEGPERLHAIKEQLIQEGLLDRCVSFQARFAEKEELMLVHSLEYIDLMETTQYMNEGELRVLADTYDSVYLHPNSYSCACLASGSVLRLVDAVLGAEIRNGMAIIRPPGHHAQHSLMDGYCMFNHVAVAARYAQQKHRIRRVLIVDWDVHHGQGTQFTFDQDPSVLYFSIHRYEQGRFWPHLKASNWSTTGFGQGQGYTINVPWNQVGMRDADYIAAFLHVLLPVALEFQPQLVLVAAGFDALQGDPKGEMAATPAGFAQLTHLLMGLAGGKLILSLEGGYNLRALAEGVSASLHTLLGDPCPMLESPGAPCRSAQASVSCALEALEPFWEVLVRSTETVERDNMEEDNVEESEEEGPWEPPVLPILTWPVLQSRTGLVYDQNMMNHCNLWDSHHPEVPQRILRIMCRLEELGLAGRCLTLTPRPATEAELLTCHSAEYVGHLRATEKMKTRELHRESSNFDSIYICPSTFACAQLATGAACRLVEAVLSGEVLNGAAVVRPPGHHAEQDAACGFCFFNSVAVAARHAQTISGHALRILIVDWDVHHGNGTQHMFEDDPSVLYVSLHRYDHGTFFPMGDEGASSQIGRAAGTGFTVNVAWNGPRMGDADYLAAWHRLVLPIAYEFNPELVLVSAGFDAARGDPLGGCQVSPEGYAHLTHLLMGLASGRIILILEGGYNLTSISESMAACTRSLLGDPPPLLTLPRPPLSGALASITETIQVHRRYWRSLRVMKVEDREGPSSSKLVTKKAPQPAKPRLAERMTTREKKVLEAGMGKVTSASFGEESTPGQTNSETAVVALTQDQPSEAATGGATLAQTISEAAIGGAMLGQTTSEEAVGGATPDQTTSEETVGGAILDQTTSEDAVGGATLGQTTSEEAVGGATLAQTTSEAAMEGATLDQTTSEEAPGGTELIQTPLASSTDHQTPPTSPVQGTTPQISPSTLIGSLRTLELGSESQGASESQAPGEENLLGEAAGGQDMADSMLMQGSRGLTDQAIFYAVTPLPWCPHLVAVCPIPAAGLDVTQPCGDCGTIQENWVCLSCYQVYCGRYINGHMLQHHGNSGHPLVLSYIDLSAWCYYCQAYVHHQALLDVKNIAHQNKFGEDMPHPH

Histone deacetylase 4 = Histone deacetylase 4 (Homo sapiens, UniProt P56524); experiment: Inhibition of human HDAC4 using fluorogenic HDAC substrate
Histone deacetylase 5 = Histone deacetylase 5 (Homo sapiens, UniProt Q9UQL6); experiment: Inhibition of human HDAC5 using fluorogenic HDAC substrate
Histone deacetylase 11 = molecular target: T4, Histone deacetylase 11 (Homo sapiens, UniProt Q96DB2); experiment: Inhibition of human HDAC11 using fluorogenic HDAC substrate
T4 sequence (Q96DB2 whole entry): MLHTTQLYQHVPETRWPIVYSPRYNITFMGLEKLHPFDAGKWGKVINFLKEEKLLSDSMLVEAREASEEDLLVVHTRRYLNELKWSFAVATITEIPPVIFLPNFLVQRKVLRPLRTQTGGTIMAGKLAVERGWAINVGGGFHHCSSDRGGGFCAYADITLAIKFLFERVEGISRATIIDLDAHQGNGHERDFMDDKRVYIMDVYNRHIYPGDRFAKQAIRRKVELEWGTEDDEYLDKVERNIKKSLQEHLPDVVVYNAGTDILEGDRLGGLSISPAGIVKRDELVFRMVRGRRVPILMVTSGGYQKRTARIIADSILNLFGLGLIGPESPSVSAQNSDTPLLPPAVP

Histone deacetylase 7 = molecular target: T5, Histone deacetylase 7 (Homo sapiens, UniProt Q8WUI4); experiment: Inhibition of human HDAC7 using fluorogenic HDAC substrate
T5 sequence (Q8WUI4 whole entry): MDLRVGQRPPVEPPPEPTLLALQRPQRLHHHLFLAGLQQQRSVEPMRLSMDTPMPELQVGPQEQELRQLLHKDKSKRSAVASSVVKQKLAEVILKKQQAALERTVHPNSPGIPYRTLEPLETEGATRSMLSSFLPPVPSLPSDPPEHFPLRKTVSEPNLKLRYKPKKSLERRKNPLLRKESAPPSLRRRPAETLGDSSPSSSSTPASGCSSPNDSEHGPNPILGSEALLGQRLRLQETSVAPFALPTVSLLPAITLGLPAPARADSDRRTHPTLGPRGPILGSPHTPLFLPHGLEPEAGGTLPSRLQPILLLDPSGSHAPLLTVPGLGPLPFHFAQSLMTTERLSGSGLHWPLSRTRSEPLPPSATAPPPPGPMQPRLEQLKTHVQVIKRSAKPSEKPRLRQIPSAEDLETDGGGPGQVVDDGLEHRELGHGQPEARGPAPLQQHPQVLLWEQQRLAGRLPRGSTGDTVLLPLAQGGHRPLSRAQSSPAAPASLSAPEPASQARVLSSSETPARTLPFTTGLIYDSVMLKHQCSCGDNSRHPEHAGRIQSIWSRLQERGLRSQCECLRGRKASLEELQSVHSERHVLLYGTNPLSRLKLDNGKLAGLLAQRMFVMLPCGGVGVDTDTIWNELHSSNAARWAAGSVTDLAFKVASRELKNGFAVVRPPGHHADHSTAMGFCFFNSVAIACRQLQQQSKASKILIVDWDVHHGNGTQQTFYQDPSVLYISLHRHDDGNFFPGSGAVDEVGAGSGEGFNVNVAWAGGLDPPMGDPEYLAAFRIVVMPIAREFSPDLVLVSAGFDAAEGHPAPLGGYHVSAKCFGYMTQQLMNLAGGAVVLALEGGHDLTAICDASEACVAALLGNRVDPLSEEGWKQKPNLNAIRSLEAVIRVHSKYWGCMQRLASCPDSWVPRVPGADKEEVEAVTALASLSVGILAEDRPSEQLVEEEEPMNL

Histone deacetylase 8 [5] = molecular target: T6, Histone deacetylase 8 (Homo sapiens, UniProt Q9BY41); experiment: Inhibition of human HDAC8 using fluorogenic HDAC substrate
T6 sequence (Q9BY41 whole entry): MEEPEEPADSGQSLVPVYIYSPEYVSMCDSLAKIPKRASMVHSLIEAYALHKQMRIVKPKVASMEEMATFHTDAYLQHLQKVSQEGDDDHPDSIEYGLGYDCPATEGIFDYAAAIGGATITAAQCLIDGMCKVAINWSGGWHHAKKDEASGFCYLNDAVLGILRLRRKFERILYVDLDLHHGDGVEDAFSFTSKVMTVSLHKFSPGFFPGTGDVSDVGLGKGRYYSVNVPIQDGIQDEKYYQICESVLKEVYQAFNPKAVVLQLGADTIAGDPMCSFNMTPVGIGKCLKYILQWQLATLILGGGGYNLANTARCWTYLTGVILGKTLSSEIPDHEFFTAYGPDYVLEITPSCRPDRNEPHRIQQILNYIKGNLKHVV

Histone deacetylase 1 [6] = molecular target: T2, Histone deacetylase 1; experiment: Inhibition of HDAC1 (unknown origin) using (FAM)-labeled acetylated peptide as substrate measured after 17 hrs by fluorescence assay
[7] = molecular target: T1, Polyamine deacetylase HDAC10; experiment: Inhibition of HDAC10 (unknown origin) using (FAM)-labeled acetylated peptide as substrate measured after 17 hrs by fluorescence assay
Histone deacetylase 8 [8] = molecular target: T6, Histone deacetylase 8; experiment: Inhibition of HDAC8 (unknown origin) using (FAM)-labeled acetylated peptide as substrate measured after 17 hrs by fluorescence assay
[9] = molecular target: T3, Protein deacetylase HDAC6; experiment: Inhibition of HDAC6 (unknown origin) using (FAM)-labeled acetylated peptide as substrate measured after 17 hrs by fluorescence assay
Histone deacetylase 2 = Histone deacetylase 2 (Homo sapiens, UniProt Q92769)
PC-3 = experiment: cells; format: functional, cell-based; conditions: Homo sapiens
Vero = experiment: cells; format: ADME, cell-based; conditions: Chlorocebus sabaeus
RWPE-1 = experiment: cells; format: ADME, cell-based; conditions: Homo sapiens
MCF7 [10] = experiment: cells; format: functional, cell-based; conditions: Homo sapiens
MDA-MB-231 = experiment: cells; conditions: Homo sapiens
[11] = molecular target: Protein deacetylase HDAC6 (Homo sapiens) (UniProt Q9UBN7); experiment: Inhibition of human HDAC6 at 100 uM relative to control
Histone deacetylase 8 [12] = molecular target: T6, Histone deacetylase 8; experiment: Inhibition of human HDAC8 using ZMTFAL as substrate measured after 90 mins by fluorescence assay
Histone deacetylase 1 [13] = molecular target: T2, Histone deacetylase 1; experiment: Inhibition of recombinant human FLAG/His-tagged HDAC1 expressed in baculovirus expression system using Boc-l-Lys(Ac)-AMC as substrate preincubated up to 3 hrs and measured after 35 mins by fluorescence assay
[14] = molecular target: Histone deacetylase 3/Nuclear receptor corepressor 2 (HDAC3/NCoR2) (Homo sapiens) (UniProt O15379+Q9Y618); experiment: Inhibition of human recombinant full length C-terminal His-tagged HDAC3 (1 to 428 residues)/N-terminal GST-tagged NCOR2 (395 to 489 residues) expressed in insect cells using Boc-l-Lys(Ac)-AMC as substrate preincubated up to 3 hrs and measured after 35 mins by fluorescence assay
Histone deacetylase [15] = format: cell-based, Homo sapiens; conditions: hela
Histone deacetylase 1 [16] = molecular target: T2, Histone deacetylase 1; experiment: Inhibition of recombinant human GST-fused HDAC1 expressed in HEK293 cells Fluor-de-lys as substrate measured after 60 mins by fluorescence assay
[17] = molecular target: T3, Protein deacetylase HDAC6; experiment: Inhibition of recombinant human His-tagged HDAC6 expressed in baculovirus infected insect cells using Fluor-de-lys as substrate measured after 60 mins by fluorescence assay
Histone deacetylase [18] = format: cell-based, Homo sapiens; conditions: hela; remark: listed apart in the source

T2 sequence (Q13547 whole entry): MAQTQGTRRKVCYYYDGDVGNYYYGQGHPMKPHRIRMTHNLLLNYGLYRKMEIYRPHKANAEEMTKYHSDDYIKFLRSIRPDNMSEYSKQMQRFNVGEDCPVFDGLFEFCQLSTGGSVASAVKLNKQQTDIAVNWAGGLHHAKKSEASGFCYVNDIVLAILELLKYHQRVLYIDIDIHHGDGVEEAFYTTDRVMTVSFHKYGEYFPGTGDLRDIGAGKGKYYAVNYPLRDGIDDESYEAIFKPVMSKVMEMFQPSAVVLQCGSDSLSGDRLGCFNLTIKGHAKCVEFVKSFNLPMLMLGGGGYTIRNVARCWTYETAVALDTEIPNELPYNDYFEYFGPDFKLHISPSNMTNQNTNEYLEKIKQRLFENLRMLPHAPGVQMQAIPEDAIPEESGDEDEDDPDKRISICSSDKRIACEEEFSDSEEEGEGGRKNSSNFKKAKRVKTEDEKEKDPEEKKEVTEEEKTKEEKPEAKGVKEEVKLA
Histone deacetylase 2, sequence (Q92769 whole entry): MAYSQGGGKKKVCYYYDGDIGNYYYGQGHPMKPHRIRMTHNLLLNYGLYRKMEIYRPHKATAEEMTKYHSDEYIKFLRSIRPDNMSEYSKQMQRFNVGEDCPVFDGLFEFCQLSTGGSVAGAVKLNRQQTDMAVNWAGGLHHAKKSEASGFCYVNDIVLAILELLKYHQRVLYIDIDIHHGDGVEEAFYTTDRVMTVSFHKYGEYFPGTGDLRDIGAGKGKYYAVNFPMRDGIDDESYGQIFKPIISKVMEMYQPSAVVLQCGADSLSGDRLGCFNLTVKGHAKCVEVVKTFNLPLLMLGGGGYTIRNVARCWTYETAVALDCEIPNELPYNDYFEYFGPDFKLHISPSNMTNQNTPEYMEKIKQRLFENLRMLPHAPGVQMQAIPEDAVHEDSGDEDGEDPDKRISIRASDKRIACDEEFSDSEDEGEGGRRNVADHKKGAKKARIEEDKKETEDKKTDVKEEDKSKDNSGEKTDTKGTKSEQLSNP
Histone deacetylase 5, sequence (Q9UQL6 whole entry): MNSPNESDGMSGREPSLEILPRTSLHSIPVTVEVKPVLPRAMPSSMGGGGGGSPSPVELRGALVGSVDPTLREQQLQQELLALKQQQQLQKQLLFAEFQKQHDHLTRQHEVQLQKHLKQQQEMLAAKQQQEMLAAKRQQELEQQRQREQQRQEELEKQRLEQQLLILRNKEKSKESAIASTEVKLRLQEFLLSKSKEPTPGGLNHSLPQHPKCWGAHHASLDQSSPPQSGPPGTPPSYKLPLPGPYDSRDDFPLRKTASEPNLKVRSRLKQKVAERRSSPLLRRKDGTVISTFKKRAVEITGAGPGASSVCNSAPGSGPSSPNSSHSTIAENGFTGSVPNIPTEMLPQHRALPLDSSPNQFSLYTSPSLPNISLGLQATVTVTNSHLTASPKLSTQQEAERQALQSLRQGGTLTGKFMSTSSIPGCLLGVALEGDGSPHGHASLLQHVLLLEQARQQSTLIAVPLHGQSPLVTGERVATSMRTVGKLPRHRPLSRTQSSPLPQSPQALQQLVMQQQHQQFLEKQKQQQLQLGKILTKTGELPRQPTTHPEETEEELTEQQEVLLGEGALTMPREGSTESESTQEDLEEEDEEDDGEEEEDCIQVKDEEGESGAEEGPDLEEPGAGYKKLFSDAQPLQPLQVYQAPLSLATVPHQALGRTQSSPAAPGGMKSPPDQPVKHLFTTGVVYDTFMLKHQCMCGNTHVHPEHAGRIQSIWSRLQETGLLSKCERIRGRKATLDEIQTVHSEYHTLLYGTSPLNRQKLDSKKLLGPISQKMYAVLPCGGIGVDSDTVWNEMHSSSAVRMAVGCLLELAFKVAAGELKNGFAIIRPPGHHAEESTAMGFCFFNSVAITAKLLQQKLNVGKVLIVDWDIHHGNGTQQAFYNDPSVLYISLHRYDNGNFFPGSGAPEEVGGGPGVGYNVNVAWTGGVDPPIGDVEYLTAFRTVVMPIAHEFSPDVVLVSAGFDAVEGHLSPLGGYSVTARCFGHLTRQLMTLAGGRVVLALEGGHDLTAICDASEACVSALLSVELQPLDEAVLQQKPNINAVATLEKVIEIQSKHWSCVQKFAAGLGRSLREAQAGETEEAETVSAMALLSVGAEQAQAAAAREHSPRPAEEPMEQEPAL
Histone deacetylase 9, sequence (Q9UKV0 whole entry): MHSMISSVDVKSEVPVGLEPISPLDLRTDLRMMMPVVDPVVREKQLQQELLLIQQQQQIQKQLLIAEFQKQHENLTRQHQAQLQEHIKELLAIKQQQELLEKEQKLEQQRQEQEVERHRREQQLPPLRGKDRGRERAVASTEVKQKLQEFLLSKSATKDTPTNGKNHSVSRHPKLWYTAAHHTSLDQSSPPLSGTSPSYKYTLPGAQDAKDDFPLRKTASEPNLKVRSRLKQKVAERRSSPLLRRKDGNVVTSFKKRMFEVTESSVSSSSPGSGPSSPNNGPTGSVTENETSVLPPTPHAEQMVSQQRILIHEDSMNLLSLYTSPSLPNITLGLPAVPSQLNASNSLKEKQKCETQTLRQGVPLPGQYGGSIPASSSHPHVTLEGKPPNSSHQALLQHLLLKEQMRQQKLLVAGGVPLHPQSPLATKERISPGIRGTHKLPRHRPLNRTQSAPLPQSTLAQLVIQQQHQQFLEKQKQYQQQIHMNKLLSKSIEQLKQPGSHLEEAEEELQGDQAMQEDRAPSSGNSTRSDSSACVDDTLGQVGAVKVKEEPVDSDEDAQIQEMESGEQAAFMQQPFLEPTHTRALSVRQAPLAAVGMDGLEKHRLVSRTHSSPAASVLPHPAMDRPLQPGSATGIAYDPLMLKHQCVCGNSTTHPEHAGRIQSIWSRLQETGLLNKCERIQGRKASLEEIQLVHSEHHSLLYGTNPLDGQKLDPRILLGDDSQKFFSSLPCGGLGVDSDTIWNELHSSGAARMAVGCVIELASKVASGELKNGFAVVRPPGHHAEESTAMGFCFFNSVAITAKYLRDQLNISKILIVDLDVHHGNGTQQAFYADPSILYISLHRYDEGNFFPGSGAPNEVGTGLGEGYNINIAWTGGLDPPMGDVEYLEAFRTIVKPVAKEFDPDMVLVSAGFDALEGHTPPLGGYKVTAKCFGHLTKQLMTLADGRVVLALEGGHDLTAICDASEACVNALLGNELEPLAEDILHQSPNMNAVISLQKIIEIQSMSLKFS
Histone deacetylase 4, sequence (P56524 whole entry): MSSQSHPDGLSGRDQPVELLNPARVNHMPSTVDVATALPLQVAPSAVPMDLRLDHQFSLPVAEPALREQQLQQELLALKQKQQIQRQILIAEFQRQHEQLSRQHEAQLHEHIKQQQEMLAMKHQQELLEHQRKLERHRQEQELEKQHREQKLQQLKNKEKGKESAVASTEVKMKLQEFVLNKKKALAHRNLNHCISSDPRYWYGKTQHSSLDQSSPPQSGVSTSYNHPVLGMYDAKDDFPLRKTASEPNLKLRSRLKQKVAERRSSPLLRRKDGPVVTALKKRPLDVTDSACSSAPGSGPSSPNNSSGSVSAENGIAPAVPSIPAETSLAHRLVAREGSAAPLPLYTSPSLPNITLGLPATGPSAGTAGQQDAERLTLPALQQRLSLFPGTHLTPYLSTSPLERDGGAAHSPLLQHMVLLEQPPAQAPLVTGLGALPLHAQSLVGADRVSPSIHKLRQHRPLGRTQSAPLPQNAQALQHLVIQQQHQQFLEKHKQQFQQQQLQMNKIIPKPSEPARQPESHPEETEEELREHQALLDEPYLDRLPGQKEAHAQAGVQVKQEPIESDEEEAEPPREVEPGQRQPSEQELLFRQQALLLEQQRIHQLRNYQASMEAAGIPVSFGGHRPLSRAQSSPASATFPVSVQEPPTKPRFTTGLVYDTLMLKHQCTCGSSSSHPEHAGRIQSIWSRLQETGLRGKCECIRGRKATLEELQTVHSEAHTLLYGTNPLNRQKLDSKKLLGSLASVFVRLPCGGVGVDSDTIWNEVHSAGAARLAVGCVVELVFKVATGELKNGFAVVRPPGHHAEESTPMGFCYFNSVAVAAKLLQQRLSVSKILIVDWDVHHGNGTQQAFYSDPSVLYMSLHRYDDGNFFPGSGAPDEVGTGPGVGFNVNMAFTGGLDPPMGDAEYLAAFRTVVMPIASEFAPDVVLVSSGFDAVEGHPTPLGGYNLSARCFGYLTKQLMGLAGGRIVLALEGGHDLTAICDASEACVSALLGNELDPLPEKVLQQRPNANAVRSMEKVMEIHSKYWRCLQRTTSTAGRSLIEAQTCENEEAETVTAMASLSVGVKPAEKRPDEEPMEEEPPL

CCCCCCC[C@H](OC(=O)[C@@H](CCCCN(O)C=O)NC(=O)c1nc(-c2cc(OC)ccc2O)oc1C)C(C)(C)C(=O)N[C@H]1CCCCN(O)C1=O [AMAMISTATIN A]
IC50 (A549): 0.56 µM | IC50 (MKN-45): 0.24 µM | IC50 (MCF7 [1]): 0.48 µM

O=C(NO)c1ccc(CN2c3ccccc3C[C@@H]3CCCC[C@H]32)cc1
IC50 (Histone deacetylase 9): 25 µM | IC50 [2]: > 30 µM | IC50 (Histone deacetylase 1 [3]): > 30 µM | IC50 [4]: 0.036 µM | IC50 (Histone deacetylase 4): > 30 µM | IC50 (Histone deacetylase 5): 27 µM | IC50 (Histone deacetylase 11): 1.5 µM | IC50 (Histone deacetylase 7): > 30 µM | IC50 (Histone deacetylase 8 [5]): 5.3 µM

Nc1cccc(-c2csc(NC(=O)CCCCCCC(=O)Nc3ccccc3N)n2)c1
IC50 (Histone deacetylase 1 [6]): 2.49 µM | IC50 [7]: 2.91 µM | IC50 (Histone deacetylase 8 [8]): > 30 µM | IC50 [9]: > 30 µM | IC50 (Histone deacetylase 2): 0.147 µM

CC1(C)C(=O)N(c2ccc(C#N)c(C(F)(F)F)c2)C(=O)N1CCCCc1cn(CCCCCCC(=O)NO)nn1
IC50 (PC-3): 15.7 µM | IC50 (Vero): > 20 µM | IC50 (RWPE-1): 12.1 µM | IC50 (MCF7 [10]): 14.6 µM | IC50 (MDA-MB-231): > 20 µM

O=C(NO)c1ccc(NC(=S)N/N=C/c2ccccc2)cc1
inhibition [11]: 30% | IC50 (Histone deacetylase 8 [12]): 27.6 µM

O=C(Nc1cc(-c2ccccc2)ccc1O)c1c(-c2ccc(O)cc2)sc2cc(O)ccc12
inhibition (Histone deacetylase 1 [13]): 21 to 34% | inhibition [14]: < 12%

CC1(C)C(=O)N(c2ccc(C#N)c(C(F)(F)F)c2)C(=O)N1Cc1ccc(-c2cn(CCCCCCC(=O)NO)nn2)cc1
IC50 (PC-3): 3.31 µM | IC50 (Vero): 11 µM | IC50 (RWPE-1): 0.48 µM | IC50 (MCF7 [10]): 4.24 µM | IC50 (MDA-MB-231): 1.45 µM

O=C(NO)c1ccc(NC(=S)N/N=C/c2ccc(F)cc2)cc1
inhibition [11]: 23% | IC50 (Histone deacetylase 8 [12]): 19.7 µM

Nc1ccccc1NC(=O)CCCCCCC(=O)Nc1ccc(-c2cn(Cc3ccccc3)nn2)cc1
IC50 (Histone deacetylase 1 [6]): > 30 µM | IC50 [7]: > 30 µM | IC50 (Histone deacetylase 8 [8]): > 30 µM | IC50 [9]: > 30 µM | IC50 (Histone deacetylase 2): > 30 µM

CCn1cnc(-c2ccccc2)c1-c1ccc(/C=C/C(=O)NO)cc1
IC50 (Histone deacetylase [15]): 0.234 µM | IC50 (Histone deacetylase 1 [16]): 0.028 µM | IC50 [17]: 0.107 µM | IC50 (Histone deacetylase [18]): 0.132 µM
